Test [1] addresses T1, MK2 (Homo sapiens, UniProt P49137). The experiment in a line: MK2 degradation in human SW1353 cells (MSD, 24 h). Set-up: endogenous in cells; host or cells: SW-1353 (ATCC HTB-94); key to MK2 MSD SW 1353 24 h Dmax %: —: “-”=not tested or inactive. The conditions noted are these: for Dmax: read-out: MK2 MSD SW 1353 24 h Dmax %; for DC50: read-out: MK2 MSD SW1353 degradation 24 h GMean External Abs DC50. It counts as cell-based. The method in brief:
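DC50 derived by 4-parameter logistic fit, with DMSO-treated signal as top and lysis-buffer signal as bottom. Remaining MK2 was measured by MSD electrochemiluminescent sandwich assay in RIPA lysates of human SW1353 cells exposed for 24 h at 37 °C to serially diluted compound in 0.1% DMSO.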

Test [2] addresses T1, MK2. The experiment in a line: MK2 degradation in human THP-1 monocytic cells (MSD, 24 h). Type of test: cell-based. Set-up: endogenous in cells. The conditions noted are these: for Dmax: THP-1, THP-1 cells; for DC50: THP-1 cells, read-out: MK2 MSD THP-1 degradation 24 h GMean External Abs DC50. The gist of the method: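 Readout: residual MK2 protein in THP-1 lysates, measured by MSD electrochemiluminescence sandwich assay after 24 h compound exposure (≤10-point serial dilutions, 0.1% DMSO, 37 °C). Curves normalised between lysis-buffer and DMSO-cell signals; DC50 by 4-parameter logistic fit.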

Usually Dmax stands for the largest share of the target that was removed. For orientation: DC50 means the concentration at which degradation of the target reaches its halfway point.

A value given as a limit tells only on which side of the number the result lay.

T1 sequence (P49137 whole entry): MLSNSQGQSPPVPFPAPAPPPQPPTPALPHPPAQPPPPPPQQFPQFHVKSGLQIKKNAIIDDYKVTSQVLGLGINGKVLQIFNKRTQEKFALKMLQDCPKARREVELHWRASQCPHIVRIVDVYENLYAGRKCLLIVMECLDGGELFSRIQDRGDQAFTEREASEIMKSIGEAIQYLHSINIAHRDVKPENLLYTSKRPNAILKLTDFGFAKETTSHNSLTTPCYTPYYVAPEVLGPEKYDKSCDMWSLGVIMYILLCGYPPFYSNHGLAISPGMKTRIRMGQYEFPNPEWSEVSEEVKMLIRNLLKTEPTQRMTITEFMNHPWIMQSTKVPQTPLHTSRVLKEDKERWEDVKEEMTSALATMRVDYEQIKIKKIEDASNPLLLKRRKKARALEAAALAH

Turning to `C[C@@H]1CNc2c(sc3ccc4nc(-c5ccc(N6CCC(CN7CCN(c8ccc9c(c8)n(C)c(=O)n9C8CCC(=O)NC8=O)CC7)CC6)cc5F)ccc4c23)C(=O)N1` (stereo partly drawn) [Compound I-306], at MK2 [1], the Dmax was more than 75% and the DC50 was less than 1 nM. In addition, at MK2 [2], the Dmax was more than 75% and the DC50 was less than 1 nM.

On to `C[C@@H]1CNc2c(sc3ccc4nc(-c5ccc(N6CCC(CN7CCN(c8cccc9c8n(C)c(=O)n9C8CCC(=O)NC8=O)CC7)CC6)cc5F)ccc4c23)C(=O)N1` (stereo partly drawn) [Compound I-307], for which, on MK2 [1], the Dmax was more than 75% and the DC50 lay in the range of 1 to 10 nM. For the same compound, on MK2 [2], the Dmax is more than 75% and the DC50 was in the range of 1 to 10 nM.

For the compound `Cn1c(=O)n(C2CCC(=O)NC2=O)c2cccc(CCCCCCCCN3CCC4(CC3)CNC(=O)c3c4[nH]c4c3CCc3cnc(-c5ccccc5F)cc3-4)c21` (stereo not drawn) [Compound I-309], on MK2 [1], the “MK2 MSD SW 1353 24 h Dmax %” value is given as “—” and the DC50 is more than 100 nM. On MK2 [2], the Dmax was less than 50% and the DC50 is more than 100 nM.

`C[C@@H]1CNc2c(sc3ccc4nc(-c5cccc(N6CCC(CN7CCN(c8cccc9c(N%10CCC(=O)NC%10=O)cncc89)CC7)CC6)c5)ccc4c23)C(=O)N1` [Compound I-310]: at MK2 [1], the Dmax is more than 75% and the DC50 lay in the range of 1 to 10 nM. Moreover, at MK2 [2], the Dmax was more than 75% and the DC50 lay in the range of 1 to 10 nM.

In the case of `C[C@@H]1CNc2c(sc3ccc4nc(-c5ccc(N6CCC(CN7CCC(c8cccc9c(N%10CCC(=O)NC%10=O)cncc89)CC7)CC6)cc5)ccc4c23)C(=O)N1` [Compound I-311], at MK2 [1], the Dmax is more than 75% and the DC50 lay in the range of 1 to 10 nM. For the same compound, at MK2 [2], the Dmax is more than 75% and the DC50 is 1 to 10 nM.

With `C[C@@H]1CNc2c(sc3ccc4nc(-c5cccc(N6CCC(CN7CCC(c8cccc9c(N%10CCC(=O)NC%10=O)cncc89)CC7)CC6)c5)ccc4c23)C(=O)N1` [Compound I-312], the Dmax at MK2 [1] and at MK2 [2] was more than 75% in each case. For the same compound, the DC50 at MK2 [1] and at MK2 [2] was 1 to 10 nM each time.

In the case of `C[C@@H]1CNc2c(sc3ccc4nc(-c5ccc(N6CCC(CN7CCN(c8ccc9c(c8)CN(C8CCC(=O)NC8=O)C9=O)CC7)CC6)cc5)ccc4c23)C(=O)N1` (stereo partly drawn) [Compound I-313], the Dmax at MK2 [1] and on MK2 [2] was more than 75% in each case. Further, the DC50 on MK2 [1] and on MK2 [2] was 1 to 10 nM each time.

`C[C@@H]1CNc2c(sc3ccc4nc(-c5ccc(N6CCC(CN7CCN(c8ccc9c(c8)n(C)c(=O)n9C8CCC(=O)NC8=O)CC7)CC6)cc5)ccc4c23)C(=O)N1` (stereo partly drawn) [Compound I-314]: the Dmax at MK2 [1] and at MK2 [2] was more than 75% throughout. The DC50 at MK2 [1] and on MK2 [2] was less than 1 nM each time.

For `C[C@@H]1CNc2c(sc3ccc4nc(-c5ccc(N6CCC(CN7CCN(c8cccc9c8n(C)c(=O)n9C8CCC(=O)NC8=O)CC7)CC6)cc5)ccc4c23)C(=O)N1` (stereo partly drawn) [Compound I-315], on MK2 [1], the Dmax is more than 75% and the DC50 was 1 to 10 nM. Further, at MK2 [2], the Dmax is more than 75% and the DC50 was 1 to 10 nM.

Turning to `Cn1c(=O)n(C2CCC(=O)NC2=O)c2cccc(N3CCC(CN4CCC5(CC4)CNC(=O)c4c5[nH]c5c4CCc4cnc(-c6ccccc6F)cc4-5)CC3)c21` (stereo not drawn) [Compound I-316], on MK2 [1], the Dmax was less than 50% and the DC50 was more than 100 nM. Besides, at MK2 [2], the Dmax is less than 50% and the DC50 was more than 100 nM.

As for `C[C@@H]1CNc2c(sc3ccc4nc(-c5ccc(N6CCC(CN7CCN(c8cccc9c(N%10CCC(=O)NC%10=O)cncc89)CC7)CC6)cc5)ccc4c23)C(=O)N1` [Compound I-317], at MK2 [1], the Dmax is more than 75% and the DC50 fell in the range of 1 to 10 nM. Besides, at MK2 [2], the Dmax is more than 75% and the DC50 was less than 1 nM.

`C[C@@H]1CNc2c(sc3ccc4nc(-c5cccc(N6CCN(C(=O)COCCOCCc7cccc8c7n(C)c(=O)n8C7CCC(=O)N(C)C7=O)CC6)c5)ccc4c23)C(=O)N1` (stereo partly drawn) [Compound I-318]: on MK2 [1], the Dmax is less than 50% and the DC50 was more than 100 nM. Further, at MK2 [2], the Dmax is less than 50% and the DC50 is more than 100 nM.

On to `C[C@@H]1CNc2c(sc3ccc4nc(N5CCC6(CCN(CC7CCN(c8ccc9c(c8)n(C)c(=O)n9C8CCC(=O)NC8=O)CC7)CC6)CC5)ccc4c23)C(=O)N1` (stereo partly drawn) [Compound I-389], for which, on MK2 [1], the Dmax was less than 50% and the DC50 is more than 100 nM. For the same compound, on MK2 [2], the Dmax is less than 50% and the DC50 was more than 100 nM.

Turning to `C[C@@H]1CNc2c(sc3ccc4nc(N5CC6(CCN(CC7CCN(c8ccc9c(c8)n(C)c(=O)n9C8CCC(=O)NC8=O)CC7)CC6)C5)ccc4c23)C(=O)N1` (stereo partly drawn) [Compound I-390], at MK2 [1], the Dmax is less than 50% and the DC50 was more than 100 nM. Further, on MK2 [2], the Dmax is less than 50% and the DC50 is more than 100 nM.

On to `C[C@@H]1CNc2c(sc3ccc4nc(N5CCC(CN6CCC7(CC6)CCN(c6ccc8c(c6)n(C)c(=O)n8C6CCC(=O)NC6=O)CC7)CC5)ccc4c23)C(=O)N1` (stereo partly drawn) [Compound I-391], for which, at MK2 [1], the Dmax was more than 75% and the DC50 was less than 1 nM. Also, at MK2 [2], the Dmax was more than 75% and the DC50 is less than 1 nM.

As to `C[C@@H]1CNc2c(sc3ccc4nc(N5CC6(CCN(C7CCN(c8ccc9c(c8)n(C)c(=O)n9C8CCC(=O)NC8=O)CC7)CC6)C5)ccc4c23)C(=O)N1` (stereo partly drawn) [Compound I-393], the greatest degradation seen (Dmax) at MK2 [1] and at MK2 [2] was less than 50% each time. Moreover, the DC50 on MK2 [1] and on MK2 [2] was more than 100 nM throughout.

`C[C@@H]1CNc2c(sc3ccc4nc(N5CCC(N6CCC7(CCN(c8ccc9c(c8)n(C)c(=O)n9C8CCC(=O)NC8=O)CC7)CC6)CC5)ccc4c23)C(=O)N1` (stereo partly drawn) [Compound I-395]: at MK2 [1], the Dmax was more than 75% and the DC50 is less than 1 nM. Besides, on MK2 [2], the Dmax is more than 75% and the DC50 was in the range of 1 to 10 nM.

Take `C[C@@H]1CNc2c(sc3ccc4nc(N5CCC(N6CCC7(CC6)CN(c6ccc8c(c6)n(C)c(=O)n8C6CCC(=O)NC6=O)C7)CC5)ccc4c23)C(=O)N1` (stereo partly drawn) [Compound I-402]: on MK2 [1], the Dmax is more than 75% and the 50% degradation concentration (DC50) was less than 1 nM. For the same compound, on MK2 [2], the Dmax is 50 to 75% and the DC50 lay in the range of 1 to 10 nM.

Take `Cn1c(=O)n(C2CCC(=O)NC2=O)c2ccc(N3CC(CN4CCN(c5ccc(-c6nccc(-c7cc8c([nH]7)C7(CC7)CNC8=O)n6)c(F)c5)CC4)C3)cc21` (stereo not drawn) [Compound I-403, 3-(5-(3-((4-(3-fluoro-4-(4-(4′-oxo-1′,4′,5′,6′-tetrahydrospiro[cyclopropane-1,7′-pyrrolo[3,2-c]pyridin]-2′-yl)pyrimidin-2-yl)phenyl)piperazin-1-yl)methyl)azetidin-1-yl)-3-methyl-2-oxo-2,3-dihydro-1H-benzo[d]imidazol-1-yl)piperidine-2,6-dionee]: the Dmax on MK2 [1] and on MK2 [2] was more than 75% each time. Also, the DC50 at MK2 [1] and at MK2 [2] was less than 1 nM in each case.

`Cn1c(=O)n(C2CCC(=O)NC2=O)c2ccc(N3CC(CN4CCN(c5ccc(-c6nccc(-c7cc8c([nH]7)C7(CCCC7)CNC8=O)n6)cc5)CC4)C3)cc21` (stereo not drawn) [Compound I-405]: the Dmax at MK2 [1] and at MK2 [2] was more than 75% each time. Besides, the DC50 on MK2 [1] and on MK2 [2] was less than 1 nM throughout.

With `Cn1c(=O)n(C2CCC(=O)NC2=O)c2ccc(N3CCC(CN4CCN(c5ccc(-c6cc(-c7cc8c(s7)CCNC8=O)ccn6)cc5)CC4)CC3)cc21` (stereo not drawn) [Compound I-406], on MK2 [1], the Dmax was less than 50% and the DC50 was more than 100 nM. For the same compound, at MK2 [2], the Dmax was less than 50% and the DC50 is more than 100 nM.

For the compound `Cn1c(=O)n(C2CCC(=O)NC2=O)c2ccc(N3CC(CN4CCN(c5ccc(-c6cc(-c7cc8c(s7)CCNC8=O)ccn6)cc5)CC4)C3)cc21` (stereo not drawn) [Compound I-407], on MK2 [1], the “MK2 MSD SW 1353 24 h Dmax %” value is “—” and the DC50 was more than 100 nM. On MK2 [2], the Dmax is less than 50% and the DC50 was more than 100 nM.

On to `Cn1c(=O)n(C2CCC(=O)NC2=O)c2ccc(N3CCC4(CC3)CC(N3CCN(c5cc(-c6cc7c([nH]6)C6(CC6)CNC7=O)ccn5)CC3)C4)cc21` (stereo not drawn) [Compound I-408], for which, on MK2 [1], the “MK2 MSD SW 1353 24 h Dmax %” value is reported as “—” and the DC50 was more than 100 nM. Also, on MK2 [2], the Dmax is less than 50% and the 50% degradation concentration (DC50) is more than 100 nM.

On to `C[C@@H]1CNc2c(sc3ccc4nc(-c5ccc(N6CC7(CCN(c8ccc9c(c8)n(C)c(=O)n9C8CCC(=O)NC8=O)CC7)C6)nc5)ccc4c23)C(=O)N1` (stereo partly drawn) [Compound I-409, 3-(3-methyl-5-(2-(5-((R)-10-methyl-8-oxo-9,10,11,12-tetrahydro-8H-[1,4]diazepino[5′,6′:4,5]thieno[3,2-f]quinolin-3-yl)pyridin-2-yl)-2,7-diazaspiro[3.5]nonan-7-yl)-2-oxo-2,3-dihydro-1H-benzo[d]imidazol-1-yl)piperidine-2,6-dione], for which the Dmax at MK2 [1] and at MK2 [2] was more than 75% throughout. In addition, the 50% degradation concentration (DC50) on MK2 [1] and on MK2 [2] was less than 1 nM in each case.

The values above are taken from patent US20230135894A1, “MK2 DEGRADERS AND USES THEREOF” (Kymera Therapeutics, Inc., priority 2021, published 2023).
